Laboratory results taken from patent US20110046217A1, “USE OF 2,2'-CYCLOLIGNANS FOR INDUCING, RESTORING OR STIMULATING THE PIGMENTATION OF THE SKIN, HAIR OR HAIRS” (priority 2007, published 2011).
Several values for one entry are separate records, joined by “and”; a condition that tells them apart may be missing. Equal values may be shown once.

Experiments:
B16 melanocytes [1] = test: MTT test and morphological observations, viability of B16 melanocytes; assay type: cell-based; conditions: for MTT (%): Table 2, plate 1; for MTT test, average / MTT test, single reading / viability (%): 72 h contact; for % cell viability: Table 4
B16 melanocytes [2] = test: Melanin assay, synthesis of melanin by B16 melanocytes; assay type: cell-based; conditions: for melanin production in the melanocyte cultures: treated at non-toxic doses
Method: The melanogenesis-stimulating effect of gomisin A was measured on B16 melanocyte cultures.
For gomisin A, the following were determined: • after culturing for 10 days under standard conditions, in 24-well plates, in Promocell medium free of “phorbol myristate acetate” (PMA):
the amount of melanin present in the cultures, by spectrophotometric measurement of the melanin produced, after alkaline extraction, relative to 100% of the control (the control corresponds to the test performed without test compound).
The melanogenesis-stimulating effect of gomisin C was measured on B16 melanocyte cultures.
For gomisin C, the following were determined: • after culturing for 10 days under standard conditions, in 24-well plates, in Promocell medium free of “phorbol myristate acetate” (PMA): […]

[3] = system: Caucasian primary melanocytes; test: Melanin produced in normal human melanocytes; assay type: cell-based; conditions: 30 μM, 4 days, in the presence of L-dopa (50 μM), vs control
Method: The study was carried out on Caucasian primary melanocytes during culturing. The test and reference formulations were applied in the presence of L-dopa which is the substrate of tyrosinase (50 μM) (Sigma, D9628-5G) for 4 days, the culture medium having been renewed after 2 days. The product GPN000715 was applied at three different concentrations: 10 μM, 30 μM and 80 μM. An application of 100 nM of the reference element (MSH) was carried out, and also an application of 0.1 mM of arbutin. The untreated control cells (CTL) stayed in the culture medium.
The melanocytes were seeded in 6-well plates at a cell density of +/−100 000 cells. One week after seeding the cells, the test and reference products were applied, in the presence of L-dopa. After 4 days of treatment, cell lysis was carried out using a solution of NaOH (1N) (Merck, 109956) over 24 hours, at 37° C. The cell lysates were then centrifuged for 10 minutes, then 120 μl of each lysate was transferred into a 96-well plate in order to read the absorbance at 450 nm. The melanin content of each sample was quantified by comparison with the absorbances from the standard curve made with synthetic melanin (Sigma, M8631-100MG), ranging from 0 to 100 μg/ml.
FIG. 1 represents a quantification of the production of melanin by melanocytes, in a single layer, after 4 days of application in the presence of the test and reference elements. […]

melanocyte = test: Formation of a dense dendritic network in the melanocyte; assay type: cell-based
keratinocytes = test: Phagocytic activity of the keratinocytes; assay type: cell-based
follicle (hair bulb) = test: Pigmentation and survival of the hair follicle

COc1cc2c(c(OC)c1OC)-c1c(cc3c(c1OC)OCO3)C[C@H](C)[C@](C)(O)C2 [Gomisin A, gomisin A]
MTT (%) (B16 melanocytes [1]; 0.0022 mg/ml): 102%
MTT (%) (B16 melanocytes [1]; 0.0067 mg/ml): 99%
MTT (%) (B16 melanocytes [1]; 0.02 mg/ml): 102%
MTT test, average (B16 melanocytes [1]; gomisin A 0.002 mg/ml): 2.001
MTT test, single reading (B16 melanocytes [1]; gomisin A 0.002 mg/ml): 2.022 and 2.112 and 2.077 and 1.920 and 1.933 and 1.942
viability (%) (B16 melanocytes [1]; gomisin A 0.002 mg/ml): 105%
MTT test, average (B16 melanocytes [1]; gomisin A 0.007 mg/ml): 2.081
MTT test, single reading (B16 melanocytes [1]; gomisin A 0.007 mg/ml): 2.046 and 2.137 and 2.227 and 2.061 and 1.966
viability (%) (B16 melanocytes [1]; gomisin A 0.007 mg/ml): 109%
MTT test, average (B16 melanocytes [1]; gomisin A 0.02 mg/ml): 2.128
MTT test, single reading (B16 melanocytes [1]; gomisin A 0.02 mg/ml): 2.227 and 2.046 and 2.241 and 1.988 and 2.085 and 2.182
viability (%) (B16 melanocytes [1]; gomisin A 0.02 mg/ml): 112%
MTT test, average (B16 melanocytes [1]; gomisin A 2E−04 mg/ml): 1.850
MTT test, single reading (B16 melanocytes [1]; gomisin A 2E−04 mg/ml): 1.878 and 1.932 and 1.972 and 1.721 and 1.807 and 1.787
viability (%) (B16 melanocytes [1]; gomisin A 2E−04 mg/ml): 97%
MTT test, average (B16 melanocytes [1]; gomisin A 3E−05 mg/ml): 1.835
MTT test, single reading (B16 melanocytes [1]; gomisin A 3E−05 mg/ml): 1.961 and 1.784 and 1.853 and 1.764 and 1.910 and 1.740
viability (%) (B16 melanocytes [1]; gomisin A 3E−05 mg/ml): 96%
MTT test, average (B16 melanocytes [1]; gomisin A 7E−04 mg/ml): 1.974
MTT test, single reading (B16 melanocytes [1]; gomisin A 7E−04 mg/ml): 1.976 and 1.996 and 2.147 and 1.844 and 1.896 and 1.987
viability (%) (B16 melanocytes [1]; gomisin A 7E−04 mg/ml): 104%
MTT test, average (B16 melanocytes [1]; gomisin A 8E−05 mg/ml): 1.886
MTT test, single reading (B16 melanocytes [1]; gomisin A 8E−05 mg/ml): 1.964 and 1.891 and 1.965 and 1.899 and 1.829 and 1.770
viability (%) (B16 melanocytes [1]; gomisin A 8E−05 mg/ml): 99%
MTT test, average (B16 melanocytes [1]; gomisin A 9.1E−06 mg/ml): 1.910
MTT test, single reading (B16 melanocytes [1]; gomisin A 9.1E−06 mg/ml): 1.837 and 1.963 and 1.930 and 1.951 and 1.879 and 1.901
viability (%) (B16 melanocytes [1]; gomisin A 9.1E−06 mg/ml): 100%
Melanin (B16 melanocytes [2]; Table 2, plate 1, 0.0022 mg/ml): 16.62 µg/mL
Melanin % Control (B16 melanocytes [2]; Table 2, plate 1, 0.0022 mg/ml): 121%
Melanin (B16 melanocytes [2]; Table 2, plate 1, 0.0067 mg/ml): 22.66 µg/mL
Melanin % Control (B16 melanocytes [2]; Table 2, plate 1, 0.0067 mg/ml): 164%
Melanin (B16 melanocytes [2]; Table 2, plate 1, 0.02 mg/ml): 27.73 µg/mL
Melanin % Control (B16 melanocytes [2]; Table 2, plate 1, 0.02 mg/ml): 201%
melanin production in the melanocyte cultures (B16 melanocytes [2]): significant increase in melanin production
increase of the amount of melanin in normal human melanocytes [3]: ~40%
formation of a dense dendritic network in the melanocyte (melanocyte): stimulating
phagocytic activity of the keratinocytes (keratinocytes): stimulating
degeneration and survival of the follicle (follicle (hair bulb)): limits degeneration and increases the survival of the follicle
pigmentation of the follicle (hair bulb) (follicle (hair bulb)): substantially stimulates the pigmentation of the follicle

COc1cc2c(c(OC)c1OC)-c1c(cc3c(c1OC)OCO3)C[C@H](C)[C@](C)(O)[C@H]2OC(=O)c1ccccc1 [Gomisin C, gomisin C]
% cell viability (B16 melanocytes [1]; 0.4 μg/ml): 102%
% cell viability (B16 melanocytes [1]; 2 μg/ml): 97%
% cell viability (B16 melanocytes [1]; 8 μg/ml): 101%
MTT test, average (B16 melanocytes [1]; gomisin C 0.0002 %): 2.783
MTT test, single reading (B16 melanocytes [1]; gomisin C 0.0002 %): 2.786 and 2.783 and 2.780
viability (%) (B16 melanocytes [1]; gomisin C 0.0002 %): 101%
MTT test, average (B16 melanocytes [1]; gomisin C 0.0008 %): 2.844
MTT test, single reading (B16 melanocytes [1]; gomisin C 0.0008 %): 2.834 and 2.824 and 2.873
viability (%) (B16 melanocytes [1]; gomisin C 0.0008 %): 103%
MTT test, average (B16 melanocytes [1]; gomisin C 0.004 %): 1.899
MTT test, single reading (B16 melanocytes [1]; gomisin C 0.004 %): 1.871 and 1.873 and 1.954
viability (%) (B16 melanocytes [1]; gomisin C 0.004 %): 69%
MTT test, average (B16 melanocytes [1]; gomisin C 0.02 %): 1.136
MTT test, single reading (B16 melanocytes [1]; gomisin C 0.02 %): 1.208 and 1.146 and 1.205
viability (%) (B16 melanocytes [1]; gomisin C 0.02 %): 43%
MTT test, average (B16 melanocytes [1]; gomisin C 1E−06 %): 2.811
MTT test, single reading (B16 melanocytes [1]; gomisin C 1E−06 %): 2.793 and 2.813 and 2.827
viability (%) (B16 melanocytes [1]; gomisin C 1E−06 %): 102%
MTT test, average (B16 melanocytes [1]; gomisin C 2.56E−07 %): 2.790
MTT test, single reading (B16 melanocytes [1]; gomisin C 2.56E−07 %): 2.786 and 2.781 and 2.804
viability (%) (B16 melanocytes [1]; gomisin C 2.56E−07 %): 101%
MTT test, average (B16 melanocytes [1]; gomisin C 3E−05 %): 2.801
MTT test, single reading (B16 melanocytes [1]; gomisin C 3E−05 %): 2.789 and 2.795 and 2.818
viability (%) (B16 melanocytes [1]; gomisin C 3E−05 %): 101%
MTT test, average (B16 melanocytes [1]; gomisin C 6E−06 %): 2.792
MTT test, single reading (B16 melanocytes [1]; gomisin C 6E−06 %): 2.778 and 2.796 and 2.801
viability (%) (B16 melanocytes [1]; gomisin C 6E−06 %): 101%
Melanin (B16 melanocytes [2]; Table 4, 0.4 μg/ml): 16.66 µg/mL
Melanin % Control (B16 melanocytes [2]; Table 4, 0.4 μg/ml): 103%
Melanin (B16 melanocytes [2]; Table 4, 2 μg/ml): 17.46 µg/mL
Melanin % Control (B16 melanocytes [2]; Table 4, 2 μg/ml): 108%
Melanin (B16 melanocytes [2]; Table 4, 8 μg/ml): 19.44 µg/mL
Melanin % Control (B16 melanocytes [2]; Table 4, 8 μg/ml): 121%
melanin production in the melanocyte cultures (B16 melanocytes [2]): significant increase in melanin production

CC(C)Cn1c(=O)n(C)c(=O)c2[nH]cnc21 [IBMX, reference compound]
MTT (%) (B16 melanocytes [1]; 200 μM): 99%
% cell viability (B16 melanocytes [1]; 8 μM): 96%
% cell viability (B16 melanocytes [1]; 40 μM): 94%
% cell viability (B16 melanocytes [1]; 200 μM): 99%
Melanin (B16 melanocytes [2]; Table 2, plate 1, 200 μM): 173.77 µg/mL
Melanin % Control (B16 melanocytes [2]; Table 2, plate 1, 200 μM): 1261%
Melanin (B16 melanocytes [2]; Table 4, 8 μM): 18.88 µg/mL
Melanin % Control (B16 melanocytes [2]; Table 4, 8 μM): 117%
Melanin (B16 melanocytes [2]; Table 4, 40 μM): 25.91 µg/mL
Melanin % Control (B16 melanocytes [2]; Table 4, 40 μM): 161%
Melanin (B16 melanocytes [2]; Table 4, 200 μM): 90.45 µg/mL
Melanin % Control (B16 melanocytes [2]; Table 4, 200 μM): 561%
